# Measurements reported in patent publication US20240002425A1, “NOVEL AMINOALKYL GLUCOSAMINIDE 4-PHOSPHATE DERIVATIVE” (DAIICHI SANKYO COMPANY, LIMITED, priority 2020, published 2024).
# What was measured:
# Type in all cases: in vivo, mouse
# [1] = tested on: mast cell degranulation reaction mediated by anti-Cry j 1 IgE; experiment: Suppression of mast cell degranulation by immune serum-derived IgG; conditions: IgG from serum of SLIT mice, 200 ng/mL Cry j 1 stimulation; vs No-SLIT and Japanese Cedar Pollen SLIT groups (FIG. 17)
# Description: IgG was purified from 200 μL of serum of each mouse individual of the allergen immunotherapy model in accordance with the protocol of Protein G HP spin trap (Cytiva, 28-9031-34). The solvent in the purified IgG was replaced with 50 μL of Tyrode's solution using Vivaspin 500, 10 kDa MWCO Polyethersulfone (Cytiva, 28-9322-25). Cry j 1 (2×10×200 ng/mL, 1.5 μL, Tyrode's solution) was added to the purified IgG (13.5 μL, Tyrode's solution), and the mixture was left standing at room temperature for 1 hour in the dark. The mast cells sensitized with anti-Cry j 1 IgE were treated with 10 μL of this specimen as a test substance, and the amount of the mast cell degranulation was measured (final concentration: 200 ng/mL, Cry j 1 stimulation).
# [2] = tested on: cervical lymph node immune cells; experiment: Cry j 1-specific cell-mediated immunity assay (cervical lymph node cells); set-up: IFN-7 produced by Cry j 1 stimulation / IL-4 produced by Cry j 1 stimulation: unit not given here; conditions: cervical lymph node cells after sublingual administration with Japanese cedar pollen antigen
# Description: Cervical lymph node was collected, then pooled for each group, and ground in PBS (1% BSA). The resultant was passed through a 70 μm strainer. […] Cells were recovered with RPMI/FBS/ps, and the number of cells was prepared to 2×5×10^6 cells/mL.
# [3] = tested on: Japanese cedar pollen antigen (Cry j 1); experiment: Immunostimulatory effect on Japanese cedar pollen antigen by sublingual administration (anti-Cry j 1 IgG or IgA); conditions: sublingual with Japanese cedar pollen antigen
# Description: The compound described in Example 24 was used to study its immunostimulatory effect on a Japanese cedar pollen antigen by sublingual administration.
# Allergen sensitization was performed by subcutaneously administering 50 μL of Japanese cedar pollen antigen extracts (allergen scratch extracts “Torii” Japanese cedar pollen, Torii Pharmaceutical Co., Ltd.) to the mouse tail root 3 and 1 weeks before the start of sublingual administration. Blood was collected 4 days after the second sensitization, and anti-Cry j 1 IgG was measured in accordance with the subsequent section. Mice were grouped such that their measured values were evenly distributed among the groups. Sublingual administration (sublingual allergen immunotherapy model) was started from 3 days thereafter.
# The antigen used was a Japanese cedar pollen antigen (5000 JAU CEDARCURE®, Torii Pharmaceutical Co., Ltd.) dissolved in 100 μL of PBS. The compound of Example 24 was dissolved in injectable water (Otsuka Pharmaceutical Co., Ltd.) to prepare a 5 mg/mL solution. The antigen and the compound of Example 24 were mixed in equal amounts immediately before administration.
# Each mouse was allowed to refrain from eating and drinking from 1 hour before sublingual administration. […]
# 25 μL of 10 μg/mL ImmunoPure Streptavidin (Thermo Fisher Scientific Inc., Cat No. 21125) was added to each well of 96 Well Micro Plate (Corning, Inc., Cat No. 3690), which was then left standing overnight at 4° C. […] The plate was left standing at room temperature for 10 minutes, and 30 μL of TMB Stop Solution was then added to each well, followed by the measurement of absorbance at 450 nm.
# Positive serum was used as a standard specimen of serum, and anti-Cry j 1 IgG or IgA contained therein was set to 1000 units/mL. […] An evaluation specimen was diluted 1000-fold with an ELISA solution and measured, and the unit value of anti-Cry j 1 IgG or IgA in the evaluation specimen was determined using the calibration curve. […]
smiles,measurement,setting,value
"CCCCCCCCCCC[C@H](CC(=O)N[C@@H](CO[C@@H]1O[C@H](CO[C@]2(C(=O)O)C[C@@H](O)[C@@H](O)[C@@H]([C@H](O)CO)O2)[C@@H](OP(=O)(O)O)[C@H](OC(=O)C[C@@H](CCCCCCCCCCC)OC(=O)CCCCCCCCC)[C@H]1NC(=O)C[C@@H](CCCCCCCCCCC)OC(=O)CCCCCCCCC)CC(=O)O)OC(=O)CCCCCCCCC.CNC[C@H](O)[C@@H](O)[C@H](O)[C@H](O)CO.CNC[C@H](O)[C@@H](O)[C@H](O)[C@H](O)CO.CNC[C@H](O)[C@@H](O)[C@H](O)[C@H](O)CO.CNC[C@H](O)[C@@H](O)[C@H](O)[C@H](O)CO [Example 24, Tetrameglumine (3R)-3-{[(3R)-3-(decanoyloxy)tetradecanoyl]amino}-4-({3-O-[(3R)-3-(decanoyloxy)tetradecanoyl]-2-{[(3R)-3-(decanoyloxy)tetradecanoyl]amino}-2-deoxy-6-O-(3-deoxy-α-D-manno-oct-2-ulopyranonosyl)-4-O-phosphono-β-D-glucopyranosyl}oxy)butanoate]",mast cell degranulation with IgG purified from mouse serum,[1],suppressed
same,IL-10 produced by Cry j 1 stimulation,[2]; 44 hours culture (FIG. 12),strongly induced
same,IFN-7 produced by Cry j 1 stimulation,[2]; 44 hours culture (FIG. 13),≤ 9.77
same,IL-4 produced by Cry j 1 stimulation,[2]; 44 hours culture (FIG. 14),≤ 9.77
same,anti-Cry j 1 IgA in nasal wash,[3]; 5 weeks (FIG. 11),induced at a high level
same,anti-Cry j 1 IgG in serum,[3]; vs No-SLIT and Japanese Cedar Pollen SLIT groups (FIG. 9),induced at a higher level
same,anti-Cry j 1 IgA in serum,[3]; vs No-SLIT and Japanese Cedar Pollen SLIT groups (FIG. 10),induced at a higher level
